# From patent US10228381B2, “Additive channels” (Emulate Inc., priority 2016, dated 2019)
# Entries after “also recorded” stand apart in the source; their conditions may differ. Positions of bridges follow the written chain, without caps; N, C: chain ends. Non-standard residues stand in square brackets, D forms with d. Residues, ends and D or L forms follow the SMILES beside them. hArg = N=C(N)NCCCC[C@H](N)C(=O)O; Mpa = O=C(O)CCS
# B1: hu5C8: humanized monoclonal IgG1 antibody against CD40L, alternatively named anti-sCD40L or anti-CD154 (antibody, chains of the INN, looked up, V domains shown)
# VH: QVQLVQSGAEVVKPGASVKLSCKASGYIFTSYYMYWVKQAPGQGLEWIGEINPSNGDTNFNEKFKSKATLTVDKSASTAYMELSSLRSEDTAVYYCTRSDGRNDMDSWGQGTLVTVSS
# VL: DIVLTQSPATLSVSPGERATISCRASQRVSSSTYSYMHWYQQKPGQPPKLLIKYASNLESGVPARFSGSGSGTDFTLTISSVEPEDFATYYCQHSWEIPPTFGGGTKLEIK
# B2: sCD40L: soluble CD40 ligand; recombinant human sCD40 Ligand (protein, UniProt P29965 113-261, looked up)
# CD40 ligand, soluble form: MQKGDQNPQIAAHVISEASSKTTSVLQWAEKGYYTMSNNLVTLENGKQLTVKRQGLYYIYAQVTFCSNREASSQAPFIASLCLKSPGRFERILLRAANTHSSAKPCGQQSIHLGGVFELQPGASVFVNVTDPSQVSHGTGFTSFGLLKL
# modifications: CD40 ligand, soluble form
# Key:
# [1] = tested on: thrombin anti-thrombin complex (TAT); experiment: Thrombin-Anti Thrombin (TAT) ELISA in chip effluent; type: cell-based, human; conditions: FIG. 22B; plasma from blood flowing out of the chip
# Description: Thrombin-Anti Thrombin (TAT) Measurement via ELISA: Thrombin Anti-Thrombin (TAT) levels were analyzed in plasma from blood flowing out of the chip device by removing a sample from the outflow port. Thus TAT levels were evaluated in sample effluents collected from the outflow port of the chip using the Human TAT ELISA Kit (Siemens Healthineers) according to the user manual.
# [2] = tested on: platelets in human whole blood on HUVEC endothelium; experiment: Vessel-On-Chip blood perfusion, platelet coverage by fluorescence imaging; type: cell-based; conditions: for areas of platelet coverage (platelet aggregation on the endothelium): endothelial pre-treatment TNF-α 50 ng/ml 6 hours, or sCollagen 10 μg/ml in blood; for platelet aggregate formation compared to untreated blood: hu5C8 240 μg/mL, sCD40L 10 ng/ml, 4 donors, 60 μl/minute
# Description: Platelets: Platelets were labeled with human CD41-PE antibody (10 μL/ml, Invitrogen) directly added to the blood and incubated at room temperature for 5 minutes.
# (§1) Adding Blood to a Vessel-On-Chip And Flow Conditions: A medical grade plastic reservoir was mounted on the chip, then 800 μl of the blood sample was pipetted into the reservoir. The chip was perfused with the blood by withdrawing it at a rate of 60 μl/minute using a syringe pump. The citrated blood was re-calcified 2 minutes after the beginning of each experiment by adding 100 μl/ml of a solution containing 100 mM calcium chloride and 75 mM magnesium chloride to the blood to permit calcium- and magnesium -dependent platelet function and coagulation.
# (§2) Fluorescence Image Analysis: Chips perfused with blood samples were immediately imaged via fluorescence microscopy (Olympus IX83, 10× objective UPLFLN10X2 , Orca-Flash4.0 CMOS Camera). Each chamber was inspected along its entire length and 5 images (about 0.25 cm) were captured from the central area of the chamber. Image processing and quantification was performed with an automatic macro compiled in ImageJ and numerical values corresponding to platelet coverage or fibrin florescence were collected and statistically analyzed in Graphpad Prism V7.
# Platelet Coverage: A percentage of signal coverage (or Platelet coverage) was computed from the binary image as the ratio of bright pixels to the total number of pixels in the image. Image processing and quantification was performed with an automatic macro compiled in ImageJ in order to ensure unbiased signal measurements. Numerical values corresponding to platelet coverage or fibrin fluorescence (signal intensity) were collected and statistically analyzed in Graphpad Prism V7.
# [3] = tested on: blood clots on endothelium; experiment: Imaging of blood clots formed on-chip (SEM, micrographs, 3D movie); type: cell-based, human; conditions: after blood perfusion
# Description: Scanning Electron Microscopy Sample Pre-treatment and Imaging: Immediately after fluorescence imaging, the chips were fixed in 2.5% glutaraldehyde in 100 mM sodium cacodylate buffer for 2 hours at room temperature. Then, the samples were washed and post fixed in 1% osmium tetroxide for 1 hour at room temperature. After the postfixation, the samples were dehydrated in series dilutions of ethanol and finally completely dried in a Critical point dryer (Tousimus Autosamsri-815). After mounting, the samples were gold sputtered using a Sputter coating system (Hummer 6.2) and imaged by SEM (Jeol 5600LV).
# [4] = tested on: fibrin deposition on HUVEC endothelium; experiment: Vessel-On-Chip blood perfusion, fibrin deposition by fluorescence imaging; type: cell-based, human; conditions: for fibrin signal intensity (fibrin deposition on the endothelium): endothelial pre-treatment TNF-α 50 ng/ml 6 hours, or sCollagen 10 μg/ml in blood; for fibrin deposition on the endothelium compared to untreated blood: hu5C8 240 μg/mL, sCD40L 10 ng/ml, 4 donors, 60 μl/minute
# Description: as §1
# Visualizing Fibrin Deposition: When analyzing the formation of fibrin, 10 μg/ml of fluorescently labeled fibrinogen (Alexa 488, Invitrogen) was also added to the blood. While fluorescent fibrinogen was barely detected as a diffused fluorescence, fibrin deposition on inflamed cells and sparse clots was easily distinguished since fibrin formed filamentous structures produce a signal intensity that is clearly observed above a background threshold.
# as §2
# [5] = tested on: human whole blood on HUVEC endothelium; experiment: Vessel-On-Chip thrombosis, all endpoints together (platelet coverage, fibrin deposition, TAT); type: cell-based; conditions: adding Eptifibatide; n=4 donors
# [6] = Eptifibatide 2 ug/ml, endothelium inflamed with TNF-α, n=4
# [7] = Eptifibatide 2 ug/ml, following treatment with sCollagen, n=4
Molecule,levels of TAT in outflow samples [1],areas of platelet coverage (platelet aggregation on the endothelium) [2],structure of blood clots formed on-chip [3],fibrin signal intensity (fibrin deposition on the endothelium) [4],platelet aggregate formation compared to untreated blood [2],fibrin deposition on the endothelium compared to untreated blood [4],other results
"sCollagen: soluble collagen (Soluble Calf Skin, Type I), a standard platelet activator",minimally increased; also recorded: elevated levels,increased,meshwork of complex fibrin-rich clots that incorporated red blood cells and platelets; also recorded: high number of larger aggregates containing a platelet rich core decorated with fibrin,increased,–,–,–
N=C(N)NCCCC[C@@H]1NC(=O)CCSSC[C@@H](C(N)=O)NC(=O)[C@@H]2CCCN2C(=O)[C@H](Cc2c[nH]c3ccccc23)NC(=O)[C@H](CC(=O)O)NC(=O)CNC1=O [Eptifibatide] ([Mpa][hArg]GDWPC-NH2; disulfide 1-7),–,–,–,–,–,–,"platelet aggregation [2, 6]: significantly inhibited; inhibitory effect on platelet aggregation [2, 7]: comparatively modest; platelet adhesion (image analysis of multiple experiments) ([2]; Eptifibatide 2 ug/ml, n=4): completely inhibited; fibrin clot formation [4, 6]: significantly inhibited; inhibitory effect on fibrin clot formation [4, 7]: comparatively modest; fibrin signal (image analysis of multiple experiments) ([4]; Eptifibatide 2 ug/ml, samples treated with TNF-α): significant amount of fibrin signal was still detectable; pro-thrombotic effects (platelet coverage, fibrin deposition) of TNF-α and sCollagen / thrombotic events [5]: suppressed; also recorded: inhibited"
TNF-α,significantly increased; also recorded: elevated levels,increased,"compact clots composed of red blood cells and platelets, surrounded by fibrin; also recorded: high number of larger aggregates containing a platelet rich core decorated with fibrin",increased,–,–,–
B1,–,–,–,–,no significant treatment-related effects,no significant treatment-related effects,–
B2,–,–,–,–,no significant treatment-related effects,no significant treatment-related effects,"platelet coverage, fold-increase over untreated control ([2]; in some donors, sCD40L alone): about 2 fold; mean increase in platelet coverage compared to controls ([2]; sCD40L alone, up to 15 donors): not statistically significant"
